{"source": "patent US5539123A", "about": "“Low molecular weight thiocarbamates as inhibitors of elastase, uses and method of synthesis” (University of Kentucky Research Foundation, priority 1994, dated 1996)", "system": "Zymosan Induced Inflammation", "experiment": "Zymosan-induced paw inflammation (arthritis) in rats, percent volume increase of the paw", "assay_type": "in vivo, rat", "conditions": "for % Oedema Volume change: 3.6 × 10^-4 mg/g IP vs control; for % Volume Increase, Mean of 3 experiments / % Volume Increase: 3.6 × 10^-4 mg/g IP", "from_the_text": "A reversible arthritic condition was induced according to known procedures for the Zymosan-induced arthritis (See J. P. Tarayre, A. Delphon, et al., Pharmacological studies in zymosan inflammation in rats and mice, I: Zymosan-induced paw edema in rat and mice, Pharmacological Research, 21, (#4) 375-384 (1989); Takuo Sato, Yoshitaka Ino, et al., Inhibitory effects of a novel synthetic protease inhibitor (FUT-175), on the paw edema in rats and Zymosan-induced compliment activation in vitro, Japan J. Pharmacol., 42,587-589 (1986); David K. Gremmell, et al., Comparative effects of drugs on four paw edema models on the rat, Agents and Actions 4, (#1) 107-116 (1979); and D. C. Keystone, et al., Zymosan-induced arthritis: A model of chronic proliferative arthritis following activation of the alternative pathway of compliment, Arthritis and Rheumatism 20 (#7) 1396-1401 (1977)).\nEach rat (250 g each) was kept in a restraining cage with light ether anesthesia until the administration of the drug. The procedure involves the intramuscular (IM) injection of 1 mg of Zymosan in 50 μL (microliters) of normal saline in the pad of a hind paw of the rat. Swelling becomes evident within 20 minutes and reaches a maximum within 1.5 hours. The swelling disappears after 24 hours. In the Figures the reversal to normal size of the paw within 24 hours is not shown. The degree of swelling is measured by a water displacement method and the percent (%) of volume increase of the paw is plotted against time (see J. P. Tarayre, A. Delphon, et al., Pharmacological studies in zymosan inflammation in rats and mice. I: Zymosan-induced paw edema in rat and mice, Pharmaco-logical Research, 21, (#4) 375-384 (1989); Takuo Sato, Yoshitaka Ino, et al., Inhibitory effects of a novel synthetic protease inhibitor (FUT-175), on the paw edema in rats and Zymosan-induced compliment activation in vitro, Japan J. Pharmacol., 42, 587-589 (1986)).\nControl was conducted by injecting I.P. 100 μl of propylene glycol (the vehicle) 15 min. prior to Zymosan administration. […] Data from tables 1 and 1a are plotted in FIGS. 1 and 1a respectively.\nIn the experimental procedure the drug [PC-16, […] (FIG. 2) or 90 μg/rat (FIG. 3)] is dissolved in 100 μL of propylene glycol and is injected IP to the rats. Fifteen minutes later the Zymosan (1mg/50 μL of normal saline) solution is injected IM into the paw of the rats. The degree of swelling is subsequently measured at various time intervals for a period of 24 hours and is reported up to 4 hours.", "data": [{"compound": "CCCCNC(=O)Sc1nnnn1-c1ccccc1", "note": "[PC-16]", "values": [{"measurement": "percent volume increase of rat paw", "setting": "36 μg/kg IP 15 min prior to Zymosan, 1.5 hour, control 60%", "result": 20, "unit": "%"}, {"measurement": "swelling of rat paw", "setting": "360 μg/kg IP 15 min prior to Zymosan", "result": "practically no swelling"}, {"measurement": "% Oedema Volume change", "setting": "10 min", "result": -85.0, "unit": "%"}, {"measurement": "% Oedema Volume change", "setting": "20 min", "result": -94.4, "unit": "%"}, {"measurement": "% Oedema Volume change", "setting": "30 min", "result": -94.2, "unit": "%"}, {"measurement": "% Oedema Volume change", "setting": "40 min", "result": -94.7, "unit": "%"}, {"measurement": "% Oedema Volume change", "setting": "50 min", "result": -95.1, "unit": "%"}, {"measurement": "% Oedema Volume change", "setting": "60 min", "result": -94.9, "unit": "%"}, {"measurement": "% Oedema Volume change", "setting": "65 min", "result": -94.8, "unit": "%"}, {"measurement": "% Oedema Volume change", "setting": "70 min", "result": -94.6, "unit": "%"}, {"measurement": "% Oedema Volume change", "setting": "80 min", "result": -93.8, "unit": "%"}, {"measurement": "% Oedema Volume change", "setting": "95 min", "result": -94.0, "unit": "%"}, {"measurement": "% Oedema Volume change", "setting": "100 min", "result": -94.3, "unit": "%"}, {"measurement": "% Oedema Volume change", "setting": "105 min", "result": -94.1, "unit": "%"}, {"measurement": "% Oedema Volume change", "setting": "115 min", "result": -93.7, "unit": "%"}, {"measurement": "% Oedema Volume change", "setting": "120 min", "result": -93.3, "unit": "%"}, {"measurement": "% Oedema Volume change", "setting": "130 min", "result": -94.1, "unit": "%"}, {"measurement": "% Oedema Volume change", "setting": "135 min", "result": -93.2, "unit": "%"}, {"measurement": "% Oedema Volume change", "setting": "145 min", "result": -92.6, "unit": "%"}, {"measurement": "% Oedema Volume change", "setting": "150 min", "result": -91.9, "unit": "%"}, {"measurement": "% Oedema Volume change", "setting": "160 min", "result": -91.6, "unit": "%"}, {"measurement": "% Oedema Volume change", "setting": "175 min", "result": -91.5, "unit": "%"}, {"measurement": "% Oedema Volume change", "setting": "190 min", "result": -91.9, "unit": "%"}, {"measurement": "% Oedema Volume change", "setting": "200 min", "result": -91.7, "unit": "%"}, {"measurement": "% Oedema Volume change", "setting": "205 min", "result": -91.3, "unit": "%"}, {"measurement": "% Oedema Volume change", "setting": "210 min", "result": -90.7, "unit": "%"}, {"measurement": "% Oedema Volume change", "setting": "220 min", "result": -90.6, "unit": "%"}, {"measurement": "% Oedema Volume change", "setting": "225 min", "result": -89.8, "unit": "%"}, {"measurement": "% Oedema Volume change", "setting": "240 min", "result": -90.9, "unit": "%"}, {"measurement": "% Volume Increase, Mean of 3 experiments", "setting": "0 min", "result": 0.00, "unit": "%"}, {"measurement": "% Volume Increase, Mean of 3 experiments", "setting": "5 min", "result": 0.89, "unit": "%"}, {"measurement": "% Volume Increase, Mean of 3 experiments", "setting": "10 min", "result": 1.43, "unit": "%"}, {"measurement": "% Volume Increase, Mean of 3 experiments", "setting": "15 min", "result": 1.43, "unit": "%"}, {"measurement": "% Volume Increase, Mean of 3 experiments", "setting": "20 min", "result": 1.61, "unit": "%"}, {"measurement": "% Volume Increase, Mean of 3 experiments", "setting": "30 min", "result": 2.19, "unit": "%"}, {"measurement": "% Volume Increase, Mean of 3 experiments", "setting": "40 min", "result": 2.37, "unit": "%"}, {"measurement": "% Volume Increase, Mean of 3 experiments", "setting": "45 min", "result": 2.00, "unit": "%"}, {"measurement": "% Volume Increase, Mean of 3 experiments", "setting": "50 min", "result": 2.37, "unit": "%"}, {"measurement": "% Volume Increase, Mean of 3 experiments", "setting": "55 min", "result": 2.92, "unit": "%"}, {"measurement": "% Volume Increase, Mean of 3 experiments", "setting": "60 min", "result": 2.92, "unit": "%"}, {"measurement": "% Volume Increase", "setting": "65 min", "result": 2.92, "unit": "%"}, {"measurement": "% Volume Increase", "setting": "70 min", "result": 3.13, "unit": "%"}, {"measurement": "% Volume Increase, Mean of 3 experiments", "setting": "75 min", "result": 3.34, "unit": "%"}, {"measurement": "% Volume Increase, Mean of 3 experiments", "setting": "80 min", "result": 3.52, "unit": "%"}, {"measurement": "% Volume Increase, Mean of 3 experiments", "setting": "85 min", "result": 3.52, "unit": "%"}, {"measurement": "% Volume Increase, Mean of 3 experiments", "setting": "90 min", "result": 3.52, "unit": "%"}, {"measurement": "% Volume Increase", "setting": "95 min", "result": 3.52, "unit": "%"}, {"measurement": "% Volume Increase, Mean of 3 experiments", "setting": "100 min", "result": 3.33, "unit": "%"}, {"measurement": "% Volume Increase", "setting": "105 min", "result": 3.49, "unit": "%"}, {"measurement": "% Volume Increase, Mean of 3 experiments", "setting": "110 min", "result": 3.65, "unit": "%"}, {"measurement": "% Volume Increase", "setting": "115 min", "result": 3.78, "unit": "%"}, {"measurement": "% Volume Increase, Mean of 3 experiments", "setting": "120 min", "result": 3.90, "unit": "%"}, {"measurement": "% Volume Increase, Mean of 3 experiments", "setting": "125 min", "result": 3.71, "unit": "%"}, {"measurement": "% Volume Increase, Mean of 3 experiments", "setting": "130 min", "result": 3.35, "unit": "%"}, {"measurement": "% Volume Increase", "setting": "135 min", "result": 3.53, "unit": "%"}, {"measurement": "% Volume Increase, Mean of 3 experiments", "setting": "145 min", "result": 3.71, "unit": "%"}, {"measurement": "% Volume Increase, Mean of 3 experiments", "setting": "150 min", "result": 3.90, "unit": "%"}, {"measurement": "% Volume Increase, Mean of 3 experiments", "setting": "160 min", "result": 3.90, "unit": "%"}, {"measurement": "% Volume Increase, Mean of 3 experiments", "setting": "170 min", "result": 3.52, "unit": "%"}, {"measurement": "% Volume Increase", "setting": "175 min", "result": 3.70, "unit": "%"}, {"measurement": "% Volume Increase, Mean of 3 experiments", "setting": "180 min", "result": 3.88, "unit": "%"}, {"measurement": "% Volume Increase, Mean of 3 experiments", "setting": "190 min", "result": 3.34, "unit": "%"}, {"measurement": "% Volume Increase", "setting": "200 min", "result": 3.41, "unit": "%"}]}]}
